These are literature values, as cited in patent US20080011293A1, “Stable Xylometazoline and Oxymetazoline Solution” (priority 1999, published 2008).

This data set relates to Pseudomonas aeruginosa.

The structures appear in SMILES notation. Like-named read-outs stand apart in the source and are kept apart here.

Regarding `OCC(O)CO` [glycerol], the “concentration above which the inhibitory effect sets in” value is “above 25 % by weight” (pH of 5.6 adjusted using HCl and NaOH); “above 30 % by weight” (pH of 7.4 (neutral)).

Take `OC[C@@H](O)[C@@H](O)[C@H](O)[C@@H](O)CO` [sorbitol]: under “pH of 7.4 (neutral)”, the “concentration above which the inhibitory effect sets in” value is “identical”. Further, the “concentration required to trigger the inhibitory effect” value (under acid conditions) is given as 40 % by weight.
